In patent publication US7795206B2, “Peptide that inhibits janus kinase” (YM Biosciences Australia Pty Ltd, priority 2001, dated 2010):

Experiments:
[1] = system: wild-type Ba/F3 cells grown upon IL-3; assay: Ba/F3 proliferation assay (IL-3 dependent growth, MTT); assay type: cell-based, murine; details: peptide 1 μM to 100 μM in PBS; cell number after three days by MTT assay; FIG. 5
Experimental: FIG. 5. Ba/F3 cell assay: Inhibition of the growth of the IL-3 dependent growth of Ba/F3 cells has been brought about by the addition of a peptide derived from JAK2 PSL. PSLShort PAEFMRMI (SEQ ID NO:15) and PSLControl SPSKFRMPEAMIGND (SEQ ID NO:16) were added at concentrations ranging from IμM to 100 μM in phosphate buffered saline. Cell number after three days was measured by an MTT assay.
These peptides were tested for biological activity by means of a proliferation assay using the murine growth factor dependent hematopoietic cell line Ba/F3. On the basis of our hypothesis of the role of how the PSL region might work, we reasoned that if these peptides were to supplant the PSL from the KLD of JAK2, then the JAK PTK activity would thereby either become unregulated, resulting in a IL-3 independent growth phenotype, or the normal IL-3 dependent growth of these cells would be inhibited. […] We hypothesize that the activity of the PSLshort peptide was dependent upon the presence of the JAK2 KLD, and conclude that its mode of action is by displacement of the PSL of JAK2 from the JAK2 KLD, resulting in unprimed JAK2 molecules that cannot be triggered by IL-3. […]
The murine hematopoietic cell line Ba/F3 was grown in the presence of IL-3. […] Cell number after three days was measured by an MTT assay.

[2] = system: Ba/F3 cells transformed to factor independence by ectopic expression of TEL/JAK2 fusion; assay: Ba/F3 proliferation assay, cells transformed to factor independence by TEL/JAK2; assay type: cell-based, murine; details: oncogenic JAK2 (PTK domain fused to PNT domain of TEL); FIG. 5

In the case of PAEFMRMI (homo sapiens) [PSLshort], the “inhibition of growth of wild-type Ba/F3 cells grown upon IL-3” value [1] is reported as “able to inhibit growth” and the “inhibition of growth of Ba/F3 cells transformed to factor independence by TEL/JAK2” value [2] is reported as “unable to inhibit”.
